From patent US8530493B2, “Indolopyridines as Eg5 kinesin modulators” (4SC AG, priority 2006, dated 2013)

Test system: RKO p21 uninduced (proliferating) colon adenocarcinoma cells
Assay: Alamar Blue cell viability assay, RKO p21 uninduced (proliferating)
Format: cell-based
Conditions: Homo sapiens, Table B3, anti-proliferative/cytotoxic activity, 72 hours, read-out: −log EC50 RKO p21 uninduced (proliferating) (converted)
Procedure, shortened: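 Viability read by Alamar Blue fluorescence (ex 544, em 590 nm), normalised to untreated wells, after 72 h, 37° C, 5% CO2 compound exposure in triplicate. Cells were uninduced (no Ponasterone A), proliferating RKO colon carcinoma p27 or p21 subclones in DMEM with 10% FCS; values are −log EC50 (mol/l).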

SMILES | EC50 [nM]
C=CCNCCN1C(=O)N2[C@H](c3cccc(O)c3)c3[nH]c4ccc(Br)cc4c3C[C@@]2(C)C1=O (racemic) [Example 383, (3aSR,10RS)-2-(2-Allylamino-ethyl)-6-bromo-10-(3-hydroxy-phenyl)-3a-methyl-3a,4,9,10-tetrahydro-2,9,10a-triaza-cyclopenta[b]fluorene-1,3-dione] | ≤ 39.8
CN(CCO)CCN1C(=O)N2[C@H](c3cccc(O)c3)c3[nH]c4ccc(Br)cc4c3C[C@@]2(C)C1=O (racemic) [Example 384, (3aSR,10RS)-6-Bromo-2-{2-[(2-hydroxy-ethyl)-methyl-amino]-ethyl}-10-(3-hydroxy-phenyl)-3a-methyl-3a,4,9,10-tetrahydro-2,9,10a-triaza-cyclopenta[b]fluorene-1,3-dione] | ≤ 39.8
CCN(CC)CCN1C(=O)N2[C@H](c3cccc(O)c3)c3[nH]c4ccc(Br)cc4c3C[C@@]2(C)C1=O (racemic) [Example 385, (3aSR,10RS)-6-Bromo-2-(2-diethylamino-ethyl)-10-(3-hydroxy-phenyl)-3a-methyl-3a,4,9,10-tetrahydro-2,9,10a-triaza-cyclopenta[b]fluorene-1,3-dione] | ≤ 39.8
CN1CCN(CCN2C(=O)N3[C@H](c4cccc(O)c4)c4[nH]c5ccc(Br)cc5c4C[C@@]3(C)C2=O)CC1 (racemic) [Example 386, (3aSR,10RS)-6-Bromo-10-(3-hydroxy-phenyl)-3a-methyl-2-[2-(4-methyl-piperazin-1-yl)-ethyl]-3a,4,9,10-tetrahydro-2,9,10a-triaza-cyclopenta[b]fluorene-1,3-dione] | ≤ 39.8
CC(=O)N1CCN(CCN2C(=O)N3[C@H](c4cccc(O)c4)c4[nH]c5ccc(Br)cc5c4C[C@@]3(C)C2=O)CC1 (racemic) [Example 387, (3aSR,10RS)-2-[2-(4-Acetyl-piperazin-1-yl)-ethyl]-6-bromo-10-(3-hydroxy-phenyl)-3a-methyl-3a,4,9,10-tetrahydro-2,9,10a-triaza-cyclopenta[b]fluorene-1,3-dione] | ≤ 39.8
C[C@@]12Cc3c([nH]c4ccc(Br)cc34)[C@@H](c3cccc(O)c3)N1C(=O)N(CCN1CCOCC1)C2=O (racemic) [Example 388, (3aSR,10RS)-6-Bromo-10-(3-hydroxy-phenyl)-3a-methyl-2-(2-morpholin-4-yl-ethyl)-3a,4,9,10-tetrahydro-2,9,10a-triaza-cyclopenta[b]fluorene-1,3-dione] | 39.8 to 251
C[C@@]12Cc3c([nH]c4ccc(Br)cc34)[C@@H](c3cccc(O)c3)N1C(=O)N(CCN1CCCC1)C2=O (racemic) [Example 389, (3aSR,10RS)-6-Bromo-10-(3-hydroxy-phenyl)-3a-methyl-2-(2-pyrrolidin-1-yl-ethyl)-3a,4,9,10-tetrahydro-2,9,10a-triaza-cyclopenta[b]fluorene-1,3-dione] | ≤ 39.8
C[C@@]12Cc3c([nH]c4ccc(Br)cc34)[C@@H](c3cccc(O)c3)N1C(=O)N(CCN1CCCCC1)C2=O (racemic) [Example 390, (3aSR,10RS)-6-Bromo-10-(3-hydroxy-phenyl)-3a-methyl-2-(2-piperidin-1-yl-ethyl)-3a,4,9,10-tetrahydro-2,9,10a-triaza-cyclopenta[b]fluorene-1,3-dione] | ≤ 39.8
CC(C)CNCCN1C(=O)N2[C@H](c3cccc(O)c3)c3[nH]c4ccc(Br)cc4c3C[C@@]2(C)C1=O (racemic) [Example 391, (3aSR,10RS)-6-Bromo-10-(3-hydroxy-phenyl)-2-(2-isobutylamino-ethyl)-3a-methyl-3a,4,9,10-tetrahydro-2,9,10a-triaza-cyclopenta[b]fluorene-1,3-dione] | ≤ 39.8
CC(C)NCCCN1C(=O)N2[C@H](c3cccc(O)c3)c3[nH]c4ccc(Cl)cc4c3C[C@@]2(C)C1=O (racemic) [Example 392, (3aSR,10RS)-6-Chloro-10-(3-hydroxy-phenyl)-2-(3-isopropylamino-propyl)-3a-methyl-3a,4,9,10-tetrahydro-2,9,10a-triaza-cyclopenta[b]fluorene-1,3-dione] | ≤ 39.8
CCNCCN1C(=O)N2[C@H](c3cccc(O)c3)c3[nH]c4ccc(Br)cc4c3C[C@@]2(C)C1=O (racemic) [Example 393, (3aSR,10RS)-6-Bromo-2-(2-ethylamino-ethyl)-10-(3-hydroxy-phenyl)-3a-methyl-3a,4,9,10-tetrahydro-2,9,10a-triaza-cyclopenta[b]fluorene-1,3-dione] | ≤ 39.8
CNCCN1C(=O)N2[C@H](c3cccc(O)c3)c3[nH]c4ccc(Br)cc4c3C[C@@]2(C)C1=O (racemic) [Example 394, (3aSR,10RS)-6-Bromo-10-(3-hydroxy-phenyl)-3a-methyl-2-(2-methylamino-ethyl)-3a,4,9,10-tetrahydro-2,9,10a-triaza-cyclopenta[b]fluorene-1,3-dione] | ≤ 39.8
C[C@@]12Cc3c([nH]c4ccc(Br)cc34)[C@@H](c3cccc(O)c3)N1C(=O)N(CCN1CC=CCC1)C2=O (racemic) [Example 395, (3aSR,10RS)-6-Bromo-2-[2-(3,6-dihydro-2H-pyridin-1-yl)-ethyl]-10-(3-hydroxy-phenyl)-3a-methyl-3a,4,9,10-tetrahydro-2,9,10a-triaza-cyclopenta[b]fluorene-1,3-dione] | 39.8 to 251
C[C@@]12Cc3c([nH]c4ccc(Br)cc34)[C@@H](c3cccc(O)c3)N1C(=O)N(CCN1CCCCCC1)C2=O (racemic) [Example 396, (3aSR,10RS)-2-(2-Azepan-1-yl-ethyl)-6-bromo-10-(3-hydroxy-phenyl)-3a-methyl-3a,4,9,10-tetrahydro-2,9,10a-triaza-cyclopenta[b]fluorene-1,3-dione] | 39.8 to 251
CCN(CCCN1C(=O)N2[C@H](c3cccc(O)c3)c3[nH]c4ccc(Cl)cc4c3C[C@@]2(C)C1=O)CCOC (racemic) [Example 397, (3aSR,10RS)-6-Chloro-2-{3-[ethyl-(2-methoxy-ethyl)-amino]-propyl}-10-(3-hydroxy-phenyl)-3a-methyl-3a,4,9,10-tetrahydro-2,9,10a-triaza-cyclopenta[b]fluorene-1,3-dione] | ≤ 39.8
CNCCN1C(=O)N2[C@H](c3cccc(O)c3)c3[nH]c4ccc(OC)c(F)c4c3C[C@@]2(C)C1=O (racemic) [Example 406, (3aSR,10RS)-5-Fluoro-10-(3-hydroxy-phenyl)-6-methoxy-3a-methyl-2-(2-methylamino-ethyl)-3a,4,9,10-tetrahydro-2,9,10a-triaza-cyclopenta[b]fluorene-1,3-dione] | 39.8 to 251
CCNCCN1C(=O)N2[C@H](c3cccc(O)c3)c3[nH]c4ccc(OC)c(F)c4c3C[C@@]2(C)C1=O (racemic) [Example 407, (3aSR,10RS)-2-(2-Ethylamino-ethyl)-5-fluoro-10-(3-hydroxy-phenyl)-6-methoxy-3a-methyl-3a,4,9,10-tetrahydro-2,9,10a-triaza-cyclopenta[b]fluorene-1,3-dione] | 39.8 to 251
COc1ccc2[nH]c3c(c2c1F)C[C@@]1(C)C(=O)N(CCNC(C)C)C(=O)N1[C@@H]3c1cccc(O)c1 (racemic) [Example 408, (3aSR,10RS)-5-Fluoro-10-(3-hydroxy-phenyl)-2-{2-isopropylamino-ethyl)-6-methoxy-3a-methyl-3a,4,9,10-tetrahydro-2,9,10a-triaza-cyclopenta[b]fluorene-1,3-dione] | 39.8 to 251
